Data published in patent publication US20090192192A1, “INHIBITORS OF BIOFILM FORMATION OF GRAM-POSITIVE AND GRAM-NEGATIVE BACTERIA” (priority 2007, published 2009).

Experiments:
Assay type in all cases: cell-based
[1] = test system: Staphylococcus aureus U of C#18 (MRSA); assay: MBEC assay, biofilm formation of S. aureus U of C #18 (MRSA); details: read-out: S. aureus U of C #18 (MRSA) log R (log reduction); for log reduction at 10 µM: compound concentration 10 μM; for log reduction at 100 µM: compound concentration 100 μM
Procedure: (§1) The compound to be tested was dissolved in DMSO to obtain a concentration that was 100 times that of the final concentration required (1 mM for the 10 μM assay and 10 mM for the 100 μM assay). 1.5 μL of the above solution was placed into each well of a 96 well plate (final volume in each well=150 μL, final DMSO concentration of 1% (v/v)).
(§2) To grow the organism and form a biofilm, a cryogenic stock of the test organism (at −70° C.) was used. A first sub-culture was streaked out onto TSA (tryptic soy agar), upon which the plate was incubated at 35±2° C. for 24 hours and stored wrapped in parafilm at 4° C. afterwards. From this first sub-culture, a second sub-culture was streaked out onto TSA. The plate was incubated at 35±2° C. for 24 hours. The second sub-culture was used within 24 hours starting from the time it was first removed from incubation. Using the second sub-culture an inoculum in 3 mL sterile water that matches a 0.5 McFarland Standard (1.5×10^8 cells per mL) was created in a glass test tube using a sterile cotton swab. 2.2 mL of this solution was diluted in 22 mL 100% TSB (tryptic soy broth) medium to a cell density of approximately 6.0×10^5 cells per mL. The diluted organism was inverted 3-5 times to achieve uniform mixing of the organism. One sample (100 μl) of the diluted organism was used for an inoculum check by serially diluting and spot plating on TSA.
(§3) To prepare a challenge plate, […] of the diluted organism was added to each well of a 96 well plate except the sterility control wells. The test compounds were added to the wells to make up final concentrations of 10 μM and […] (1.5 μL/well) in the designated location in the test plate. 128.5 μL of 100% universal neutralizer (1% Tween 80 in Cation Adjusted Mueller Hinton Broth, CAMHB) was placed in each of the wells. 130 μL of media was added to the growth control wells. 128.5 μL of media+1.5 μL of DMSO were added to a second set of growth control wells. 150 μL of media was added to the sterility controls. Each sample was run in triplicate. The plate was covered by a lid with a peg per well and wrapped in parafilm and placed on a shaker in a humidified incubator (GeneVac) at 35±+2° C. for 24 hours set at 110 rpm.
(§4) Rinse plate(s) of 0.9% saline (200 μL per well) were prepared in a sterile 96 well microtitre plate. Lid-associated pegs were rinsed in 0.9% saline for approximately 1-2 minutes. The peg lid was transferred to the recovery media (1.0% Tween 80 in CAMHB) then sonicated for 30 minutes to dislodge surviving biofilm. Following sonication, 100 μL from each well of the 96 well plate was placed into the first 12 wells of the first row of a 96 well microtiter plate. 180 μl of 0.9% sterile saline was placed in the remaining rows. A serial dilution (10^0-10^7) was prepared by moving 20 μl down each of the 8 rows. 20 μl from each well was removed and spot plated on a prepared TSA. In the remaining recovery plate, 100 μl of fresh growth media (1.0% Tween 80 in CAMHB) was placed in each well to replace the amount removed. The recovery plate was covered with a regular lid and incubated at 35±2° C. for 24 hours and read visually to confirm antimicrobial activity of the test compounds.
(§5) The compounds of the present disclosure have been tested regarding their efficiency to inhibit biofilm formation of Staphylococcus aureus U of C#18 (MRSA), Staphylococcus aureus 456 (MRSA), Staphylococcus epidermidis RP62A, and Pseudomonas aeruginosa PAO1.

[2] = test system: Pseudomonas aeruginosa PAO1; assay: MBEC assay, biofilm formation of P. aeruginosa PAO1; details: for IC50: biofilm formation, read-out: P. aeruginosa PAO1 inhibitory concentration IC50; for inhibition at 100 µM: compound concentration 100 μM
Procedure, shortened: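 Peg-lid biofilms were grown 24 h at 35±2 °C, 110 rpm, from inoculum diluted to ~6.0×10^5 cells per mL in TSB, with compound at 10 μM or 100 μM final (1% DMSO) in 1% Tween 80/CAMHB. Pegs were rinsed, then sonicated 30 min into recovery medium; survivors were spot-plated, and recovery plates were read visually after 24 h; triplicates.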

[3] = test system: Staphylococcus aureus 456 (MRSA); assay: MBEC assay, biofilm formation of S. aureus 456 (MRSA); details: read-out: S. aureus 456 (MRSA) log R (log reduction); for log reduction at 10 µM: compound concentration 10 μM; for log reduction at 100 µM: compound concentration 100 μM
Procedure: as §1, §2, §3, §4, §5

[4] = test system: Staphylococcus epidermidis RP62A; assay: MBEC assay, biofilm formation of S. epidermidis RP62A; details: read-out: S. epidermidis RP62A log R (log reduction); for log reduction at 10 µM: compound concentration 10 μM; for log reduction at 100 µM: compound concentration 100 μM
Procedure: as §1, §2, §3, §4, §5

[5] = test system: Staphylococcus aureus 398 (MRSA); assay: MBEC assay, biofilm formation of S. aureus 398 (MRSA)
Procedure: as §1
as §2, with “2.2 mL of this solution was diluted in 22 mL 100% TSB (tryptic soy broth) medium to a cell density of approximately 6.0×10^5 cells per mL. The diluted organism was inverted 3-5 times to achieve uniform mixing of the organism. One sample (100 μl) of the diluted organism was used for an inoculum check by serially diluting and spot plating on TSA.” left out
Rinse plate(s) of 0.9% saline (200 μL per well) were prepared in a sterile 96 well microtitre plate. […] The recovery plate was covered with a regular lid and incubated at 35±2° C. for 24 hours and read visually to confirm antimicrobial activity of the test compounds. […]

## CCCCCCCCCOCC(=O)Nc1ccnn1C [Example 1, N-(1-methylpyrazol-5-yl)-2-(nonyloxy)acetamide]
[1]
  log reduction at 10 µM: 0.4
  log reduction at 100 µM: 0.77
[2]
  IC50: 27 µM
[3]
  log reduction at 10 µM: 0.26
  log reduction at 100 µM: 1.18
[4]
  log reduction at 10 µM: 0
  log reduction at 100 µM: 0

## CCCCCCCCCCCC(=O)N1CCCC(C(=O)N(CC)CC)C1 (centres unmarked) [Example 2, 1-dodecanoyl-N,N-diethylpiperidine-3-carboxamide]
[1]
  log reduction at 10 µM: 1.56
  log reduction at 100 µM: 5.38
[2]
  IC50: 12 µM
[3]
  log reduction at 10 µM: 1.75
  log reduction at 100 µM: 5.79
[4]
  log reduction at 10 µM: 0
  log reduction at 100 µM: 3.5

## CCCCCCCCOCCC(=O)Nc1ccc(F)cc1C(F)(F)F [Example 3, N-(4-fluoro-2-(trifluoromethyl)phenyl)-3-(octyloxy)propanamide]
[1]
  log reduction at 10 µM: 0.11
  log reduction at 100 µM: 0.19
[2]
  IC50: 19 µM
[3]
  log reduction at 10 µM: 0.19
  log reduction at 100 µM: 0.49
[4]
  log reduction at 10 µM: 0
  log reduction at 100 µM: 0

## CCCCCCCCCC(=O)NC(=O)Nc1ccnn1CC [Example 4, N-(1-ethylpyrazol-5-ylcarbamoyl)decanamide]
[1]
  log reduction at 10 µM: 1.13
  log reduction at 100 µM: 1.49
[2]
  IC50: 11 µM
[3]
  log reduction at 10 µM: 1.14
  log reduction at 100 µM: 3.28
[4]
  log reduction at 10 µM: 0
  log reduction at 100 µM: 0.78

## CCCCCCCCOCCC(=O)N(C)c1ccc(F)cc1 [Example 5, N-(4-fluorophenyl)-N-methyl-3-(octyloxy)propanamide]
[1]
  log reduction at 10 µM: -0.21
  log reduction at 100 µM: 1.29
[2]
  IC50: 24 µM
[3]
  log reduction at 10 µM: 0.54
  log reduction at 100 µM: 1.86
[4]
  log reduction at 10 µM: 0
  log reduction at 100 µM: 0

## CCCCCCCCCCNC(=O)N(C)c1ccccc1 [Example 6, 3-decyl-1-methyl-1-phenylurea]
[1]
  log reduction at 10 µM: 0.72
  log reduction at 100 µM: 1.08
[2]
  IC50: 9 µM
[3]
  log reduction at 10 µM: 1.61
  log reduction at 100 µM: 2.3
[4]
  log reduction at 10 µM: 0
  log reduction at 100 µM: 4.45

## CCCCCCCCCCNC(=O)N(C)[C@@H](C)c1ccccc1 [Example 7, (S)-3-decyl-1-methyl-1-(1-phenylethyl)urea]
[1]
  log reduction at 10 µM: 0.84
  log reduction at 100 µM: 1.12
[2]
  IC50: 4 µM
[3]
  log reduction at 10 µM: 0.53
  log reduction at 100 µM: 1.26
[4]
  log reduction at 10 µM: 0
  log reduction at 100 µM: 0

## CCCCCCCCCCNC(=O)Nc1cc(C(C)(C)C)nn1C [Example 8, 1-(3-tert-butyl-1-methylpyrazol-5-yl)-3-decylurea]
[1]
  log reduction at 10 µM: 0.26
  log reduction at 100 µM: 0.8
[2]
  IC50: 3 µM
[3]
  log reduction at 10 µM: 0.42
  log reduction at 100 µM: 1.04
[4]
  log reduction at 10 µM: 0
  log reduction at 100 µM: 0

## CCCCCCCCCCCC(=O)Nc1cc(C(C)(C)C)nn1C [Example 9, N-(3-tert-butyl-1-methylpyrazol-5-yl)dodecanamide]
[1]
  log reduction at 10 µM: 0.42
  log reduction at 100 µM: 0.46
[2]
  IC50: 12 µM
[3]
  log reduction at 10 µM: 0.65
  log reduction at 100 µM: 1.06
[4]
  log reduction at 10 µM: 0
  log reduction at 100 µM: 0

## CCCCCCCCCCNC(=O)N1CCCC(C(=O)N(CC)CC)C1 (centres unmarked) [Example 10, N^1-decyl-N^3,N^3-diethylpiperidine-1,3-dicarboxamide]
[5]; compound concentration 10 μM
  S. aureus 398 (MRSA) log R (log reduction): 1.38
[5]; compound concentration 100 μM
  S. aureus 398 (MRSA) log R (log reduction): 2.54
[1]
  log reduction at 10 µM: 1.17
  log reduction at 100 µM: 0.91
[2]
  inhibition at 100 µM: 84%
[4]
  log reduction at 10 µM: 1.33
  log reduction at 100 µM: 1.28

## CCCCCCCCCCC(=O)N1CCCC(C(=O)N(CC)CC)C1 (centres unmarked) [Example 11, N,N-diethyl-1-undecanoylpiperidine-3-carboxamide]
[1]
  log reduction at 10 µM: 0.84
  log reduction at 100 µM: 0.88
[2]
  inhibition at 100 µM: 75%
[4]
  log reduction at 10 µM: 0.77
  log reduction at 100 µM: 1.48

## CCCCCCCCCCCCC(=O)N1CCCC(C(=O)N(CC)CC)C1 (centres unmarked) [Example 12, N,N-diethyl-1-tridecanoylpiperidine-3-carboxamide]
[1]
  log reduction at 10 µM: 0.08
  log reduction at 100 µM: 1.57
[2]
  inhibition at 100 µM: 85%
[4]
  log reduction at 10 µM: 1.42
  log reduction at 100 µM: 2.47

## CCCCCCCCCCCC(=O)N1CCC(C(=O)N2CCCC2)C1 (centres unmarked) [Example 149, 1-(3-(pyrrolidine-1-carbonyl)pyrrolidin-1-yl)dodecan-1-one]
[2]; class symbols
  inhibition at 100 µM: > 50%

## CCCCCCCCCCCC(=O)N1CCC(C(=O)N(C(C)C)C(C)C)C1 (centres unmarked) [Example 150, 1-dodecanoyl-N,N-diisopropylpyrrolidine-3-carboxamide]
[2]; class symbols
  inhibition at 100 µM: > 50%

## CCCCCCCCCCCC(=O)N1CCC(C(=O)Nc2ccccc2)C1 (centres unmarked) [Example 151, 1-dodecanoyl-N-phenylpyrrolidine-3-carboxamide]
[2]; class symbols
  inhibition at 100 µM: 20 to 50%

## CCCCCCCCCCCC(=O)N1CCC(C(=O)Nc2ccc(F)cc2)C1 (centres unmarked) [Example 152, 1-dodecanoyl-N-(4-fluorophenyl)pyrrolidine-3-carboxamide]
[2]; class symbols
  inhibition at 100 µM: 20 to 50%

## CCCCCCCCCCCC(=O)N1CCC(C(=O)Nc2cc(C)nn2C)C1 (centres unmarked) [Example 153, N-(1,3-dimethylpyrazol-5-yl)-1-dodecanoylpyrrolidine-3-carboxamide]
[2]; class symbols
  inhibition at 100 µM: > 50%

## CCCCCCCCCCCC(=O)N1CCC(C(=O)Nc2cc(C(C)(C)C)nn2C)C1 (centres unmarked) [Example 154, N-(3-tert-butyl-1-methylpyrazol-5-yl)-1-dodecanoylpyrrolidine-3-carboxamide]
[2]; class symbols
  inhibition at 100 µM: 20 to 50%
